How the values were obtained:
pre-miR-21 = test: In vitro C-Chem-CLIP; format: binding; details: 32P-labeled pre-miR-21; 8 at 5 μM; 7 at 1, 5, 20 or 100 μM
Protocol: Direct target occupancy was further verified using C-Chem-CLIP. In this assay, the RNA-binding module was conjugated to a diazirine cross-linking module and an alkyne handle for purification, affording Chem-CLIP probe 8 (FIG. 8A).^18 Radioactively labeled pre-miR-21 was incubated with a constant concentration of 8 and increasing amounts of 7. After cross-linking by irradiation with UV light, the amount of pre-miR-21 pulled down by 8 was measured by its radioactive signal. If the two compounds (7 and 8) share the same binding site, the amount of pre-miR-21 in the pulled down fraction is depleted.
In Vitro C-Chem-CLIP. Growth medium (RPMI 1640 medium supplemented with 300 mg/L Lglutamine & 25 mM HEPES; Corning, catalog #10-041-CV)] was inactivated by heating to 95° C. for 10 min followed by slowly cooling to room temperature. […]
Copper-catalyzed click chemistry^10 was used to click the probes in each sample to biotinazide (1265-5, Click Chemistry Tools). […] Radioactive signal from both the bound RNA on the magnetic beads and the unbound RNA in the wash solutions were measured using a Beckman […] Coulter LS6500 Liquid Scintillation Counter. The percentage pulldown by Chem-CLIP probe was calculated according to equation 2: […]

[1] = RiboTAC cellular uptake quantification; format: in vitro ADME; details: human, MDA-MB-231 cells; 5 μM in culture medium
Protocol: (§1) A time-course for RiboTAC degradation of pre-miR-21 was completed and compared to its cellular permeability. […] Additionally, degradation of pre-miR-21 is first detectable after 48 h of treatment with 7 (FIG. 10B).
(§2) RiboTAC Cellular Uptake Quantification. MDA-MB-231 cells were cultured as described in “Cell Culture” with a final cell density of 13,500 cells per well. Cells were treated with 7 (5 μM) for 0, 0.25, 0.5, 0.75, 1, 2, 3, 6, 12, 24, and 48 hours. Following treatment, cells were rapidly washed with 1×PBS to remove any unincorporated compound. Cells were then detached using 75 μl trypsin, immediately homogenized and flash frozen. The cell homogenate was analyzed using a Sciex 6500 mass spectrometer operated in multiple reaction monitoring mode with the transition m/z=1078.3/900.3. Homogenate drug levels were determined by comparison to a standard curve prepared in untreated cell homogenate. Calculated concentrations, (ng drug)/(ml homogenate) or μM drug inside cell, were fit to a one-phase association model using GraphPad Prism.

MDA-MB-231 cells = test: RiboTAC cellular uptake quantification; format: in vitro ADME
Protocol: as §1, §2

[2] = system: phosphorylation of extracellular signal-regulated kinase (ERK); test: Western blot of pERK versus ERK (RTK signaling); format: cell-based; details: CRISPR-Control sgRNA MDA-MB-231 cells
Protocol: Quantification of Protein Levels by Western Blotting. MDA-MB-231 cells were treated as described in “Cell Culture.” After treatment, the medium was removed, and the cells were washed with 1× Dulbecco's phosphate-buffered saline (DPBS). Total protein was extracted using Mammalian Protein Extraction Reagent (M-PER, Thermo Scientific) according to the manufacturer's protocol. Protein concentration was measured using a Pierce Micro BCA Protein Assay kit (Fisher Scientific). Approximately 20 μg total protein was loaded onto a Tris-glycine gel with a 5% polyacrylamide stacking layer and a 10% polyacrylamide resolving layer. The gel was run at 140 V for ˜1.5 h in 1× Running Buffer (25 mM Tris base, pH 8.3, 190 mM glycine, and 0.1% (w/v) SDS). After electrophoresis, the protein was transferred to a PVDF membrane using 1× Transfer Buffer (25 mM Tris base, pH 8.3, 190 mM glycine, and 20% (v/v) methanol). The membrane was then washed with 1×TBST (Tris-buffered saline with 0.1% (v/v) Tween 20) and blocked in a solution of 5% (w/v) milk in 1×TBST for 30 min with shaking at room temperature. The membrane was then incubated overnight at 4° C. in a solution of primary antibody diluted in 1×TBST containing 5% (w/v) milk. […]

CNC(=O)[C@H](c1ccccc1)N(C)Cc1ccc(-c2cccc(-c3sccc3NC(=O)CCOCCOCCOCCC(=O)NCCN3CCN(c4ccc5nc(-c6c(N)c7c(F)cccc7[nH]c6=O)[nH]c5c4)CC3)c2)cc1 [RiboTAC 7, (S)—N-(2-(4-(2-(4-amino-5-fluoro-2-oxo-1,2-dihydroquinolin-3-yl)-1H-benzo[d]imidazol-6-yl)piperazin-1-yl)ethyl)-3-(2-(2-(3-((2-(4′-((methyl(2-(methylamino)-2-oxo-1-phenylethyl)amino)methyl)-[1,1′-biphenyl]-3-yl)thiophen-3-yl)amino)-3-oxopropoxy)ethoxy)ethoxy)propanamide]
amount of pre-miR-21 cross-linked to Chem-CLIP probe 8 in competition (pre-miR-21): dose-dependently reduced the amount of pre-miR-21 cross-linked to 8 | half-life at 5 μM [1]: 2.4 h | time to reach plateau of cellular accumulation (MDA-MB-231 cells; 5 μM in culture medium): about 8 h | concentration inside cells (MDA-MB-231 cells; after 48 h treatment with 5 μM in culture medium): 3.6 ± 1.2 µM | effect on the levels of ERK or pERK [2]: no effect
